According to the supplement of paper PMC4862054:

Tests used:
Conditions in all cases: incubation time: 72 h
[1] = system: CAL-85-1; test: normalised response (% of control), CellTox Green; higher = less cell death (100 = DMSO, 0 = benzethonium chloride kill control)
Method in brief: (§1)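 Breast cancer cell lines, seeded at 20 µl suspension per well, were incubated for 72 h in 384-well plates containing compound at 5 concentrations. These concentrations rose in 10-fold steps over a 10,000-fold range set for each compound. CellTox Green fluorescence (485/520 nm) was read, then CellTiter-Glo luminescence after 10 min at room temperature, and each plate was normalised to 0.1 % DMSO (100) and a positive kill control (0). Values are normalised signals, each at one concentration.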

[2] = system: MDA-MB-436; test: as above
Method in brief: as §1

[3] = system: HCC1937; test: as above
Method in brief: as §1

[4] = system: CAL-148; test: as above
Method in brief: as §1

[5] = system: Hs578T; test: as above
Method in brief: as §1

[6] = system: HDQ-P1; test: as above
Method in brief: as §1

[7] = system: HCC1599; test: as above
Method in brief: as §1

[8] = system: CAL-120; test: as above
Method in brief: as §1

[9] = system: BT-474; test: as above
Method in brief: as §1

[10] = system: HCC1143; test: as above
Method in brief: as §1

[11] = system: CAL-51; test: as above
Method in brief: as §1

[12] = system: MCF-10A; test: as above
Method in brief: as §1

[13] = system: MDA-MB-231; test: as above
Method in brief: as §1

[14] = system: BT-549; test: as above
Method in brief: as §1

[15] = system: MDA-MB-468; test: as above
Method in brief: as §1

[16] = system: DU-4475; test: as above
Method in brief: as §1

[17] = system: MDA-MB-453; test: as above
Method in brief: as §1

[18] = system: MFM-223; test: as above
Method in brief: as §1

[19] = system: CAL-85-1; test: normalised response (% of control), CellTiter-Glo; higher = more viable cells (100 = DMSO, 0 = benzethonium chloride kill control)
Method in brief: as §1

[20] = system: MDA-MB-436; test: as above
Method in brief: as §1

[21] = system: HCC1937; test: as above
Method in brief: as §1

[22] = system: CAL-148; test: as above
Method in brief: as §1

[23] = system: Hs578T; test: as above
Method in brief: as §1

[24] = system: HDQ-P1; test: as above
Method in brief: as §1

[25] = system: HCC1599; test: as above
Method in brief: as §1

[26] = system: CAL-120; test: as above
Method in brief: as §1

[27] = system: BT-474; test: as above
Method in brief: as §1

[28] = system: HCC1143; test: as above
Method in brief: as §1

[29] = system: CAL-51; test: as above
Method in brief: as §1

[30] = system: MCF-10A; test: as above
Method in brief: as §1

[31] = system: SK-BR-3; test: as above
Method in brief: as §1

[32] = system: MDA-MB-231; test: as above
Method in brief: as §1

[33] = system: BT-549; test: as above
Method in brief: as §1

[34] = system: MDA-MB-468; test: as above
Method in brief: as §1

[35] = system: DU-4475; test: as above
Method in brief: as §1

[36] = system: MDA-MB-453; test: as above
Method in brief: as §1

[37] = system: MFM-223; test: as above
Method in brief: as §1

Row | Structure (SMILES) | normalised response [1] | normalised response [2] | normalised response [3] | normalised response [4] | normalised response [5] | normalised response [6] | normalised response [7] | normalised response [8] | normalised response [9] | normalised response [10] | normalised response [11] | normalised response [12] | normalised response [13] | normalised response [14] | normalised response [15] | normalised response [16] | normalised response [17] | normalised response [18] | normalised response [19] | normalised response [20] | normalised response [21] | normalised response [22] | normalised response [23] | normalised response [24] | normalised response [25] | normalised response [26] | normalised response [27] | normalised response [28] | normalised response [29] | normalised response [30] | normalised response [31] | normalised response [32] | normalised response [33] | normalised response [34] | normalised response [35] | normalised response [36] | normalised response [37]
1 | Cc1c(Cn2c(C)nc3c(C(=O)O)cc(N4CCOCC4)cc32)cccc1C(F)(F)F (1000 nM) | 104% | 107% | 106% | 107% | 105% | 115% | 92.3% | 109% | 102% | 119% | 100% | 110% | 107% | 111% | 125% | 111% | 112% | 105% | 98.1% | 99.5% | 94.4% | 101% | 103% | 105% | 117% | 99.8% | 96.2% | 103% | 74.1% | 115% | 106% | 100% | 75.5% | 80.9% | 95.1% | 93.1% | 104%
2 | CC/C(=C(\c1ccc(O)cc1)c1ccc(OCCN(C)C)cc1)c1ccccc1 [4-hydroxytamoxifen] (1000 nM) | 120% | 93.6% | 86.6% | 57.6% | 97.2% | 97.3% | 95.8% | 108% | 97.7% | 88.3% | 108% | 103% | 108% | 114% | 128% | 105% | 111% | 95.9% | 97.2% | 101% | 93.9% | 102% | 107% | 98.8% | 105% | 92.5% | 101% | 98.9% | 102% | 98.8% | 99.2% | 97% | 93.6% | 91.6% | 98.5% | 102% | 95.6%
3 | CCCCC/C=C/C=C1/C(=O)C=C[C@@H]1C/C=C\CCCC(=O)O [15D-PGJ2] (80 nM) | 125% | 116% | 123% | 103% |  | 111% | 109% | 108% | 98.9% | 82.5% | 113% | 104% | 86.6% | 105% | 155% | 110% | 113% | 101% | 96.2% | 98.5% | 99.1% | 102% | 107% | 99.9% | 88.8% | 103% | 101% | 104% | 123% | 111% | 103% | 101% | 99.1% | 99.2% | 102% | 96.8% | 99.9%
4 | O=C(Nc1c[nH]nc1-c1nc2ccc(CN3CCOCC3)cc2[nH]1)NC1CC1 [AT9283] (100 nM) | 84.6% | 86.7% | 85% | 20.3% | 94.9% | 99.6% | 110% | 84.9% | 103% | 101% | 71.7% | 70.3% | 14.5% | 121% | 70.7% | 97.6% | 100% | 103% | 105% | 99% | 93.8% | 46.6% | 88.8% | 96.9% | 102% | 85% | 73.8% | 84.8% | 69% | 71.8% | 86.4% | 78.8% | 82.1% | 29.7% | 88.9% | 141% | 89.2%
